The values that follow come from patent US20240197726A1, “NOVEL TETRAHYDROISOQUINOLINE ALKALOID COMPOUND CONTAINING MACROCYCLE” (THE UNIVERSITY OF TOKYO, priority 2021, published 2024).

The structures appear in SMILES notation. Like-named read-outs stand apart in the source and are kept apart here.

Common to all, as to format: cell-based
Assay [1] concerns BSY-1 breast cancer cells. The assay can be described thus: antitumor activity, sulforhodamine B cell growth assay, BSY-1. The gist of the method:
(§1)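 Growth inhibition measured by SRB assay following 48 h exposure in RPMI 1640 containing 5% FBS. Values are log concentrations giving 50% growth, zero net growth, or 50% cell kill, interpolated from the two doses flanking each level.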

The subject of assay [2] is MCF-7 breast cancer cells. As to the kind of experiment: antitumor activity, sulforhodamine B cell growth assay, MCF-7. The protocol:
(§2) The THIQ compound containing a macrocyclic structure of the present invention was administered to various cancer cell lines, and the antitumor activity (Go value) was observed. Specifically, verification was performed according to the literature (Yamori, T.; Matsunaga, A.; Sato, S.; Yamazaki, K.; Komi, A.; Ishizu, K. et al. Cancer Res. 1999, 59, 4042) by the following procedure.
(§3) Cells were plated at an appropriate density in a 96-well plate in RPMI 1640 together with 5% fetal bovine serum, and adhered overnight. The cells were exposed to a drug for 48 hours. Then, according to the sulforhodamine B assay described by Skehan et al (Skehan P., Storeng R., Scudiero D., Monks A., McMahon J., Vistica D., Warren J. T., Bokesch H., Kenney S., Boyd M. R. J Natl. Cancer Inst, 1990, 82, 1107-1112), the cell growth rate was measured. The absorbance of the control well (C) and the test well (T) was measured at 525 nm. In addition, the time at which the drug was added was set as time 0, and the absorbance for the test well (T0) was measured. Using these measured values, the cell growth inhibitory effect (% growth=PG) was calculated by the following formula at each concentration of the drug.
(§4) (T<T0): PG=100×[(T−T0)/T]
(§5) The PG values determined above for each cell line were plotted against the concentration (logarithm) on a semi-logarithmic graph, and summarized for each visceral cancer. Concentrations at which the dose-response curve of each cell line crossed the horizontal line of PG=50%, 0%, or −50% were calculated. These concentrations were defined as Log GI50, Log TGI, and Log LC50. Actually, using two data points of the drug concentration before and after crossing each horizontal line, the drug concentration (logarithmic value) at the intersection of the straight line connecting the two points and the horizontal line for each PG was calculated.

In assay [3] the test system is U251 central nervous system cancer cells. As to the kind of experiment: antitumor activity, sulforhodamine B cell growth assay, U251. The gist of the method:
as §1

Assay [4] deals with SNB-75 central nervous system cancer cells. The assay can be described thus: antitumor activity, sulforhodamine B cell growth assay, SNB-75. Summed up: as §1
Assay [5] has as its system KM-12 colorectal cancer cells. The assay can be described thus: antitumor activity, sulforhodamine B cell growth assay, KM-12. The gist of the method:
as §1

Assay [6] concerns HT-29 colorectal cancer cells. The assay can be described thus: antitumor activity, sulforhodamine B cell growth assay, HT-29. Summed up: as §1
Assay [7] concerns HCT-116 colorectal cancer cells. As to the kind of experiment: antitumor activity, sulforhodamine B cell growth assay, HCT-116. The gist of the method: as §1
The subject of assay [8] is NCI-H460 lung cancer cells. The assay can be described thus: antitumor activity, sulforhodamine B cell growth assay, NCI-H460. The gist of the method:
as §1

Assay [9] deals with A549 lung cancer cells. As to the kind of experiment: antitumor activity, sulforhodamine B cell growth assay, A549. Summed up: as §1
Assay [10] relates to DMS273 lung cancer cells. The assay can be described thus: antitumor activity, sulforhodamine B cell growth assay, DMS273. Summed up: as §1
For assay [11], the system named is DMS114 lung cancer cells. As to the kind of experiment: antitumor activity, sulforhodamine B cell growth assay, DMS114. Summed up:
as §1

The subject of assay [12] is LOX-IMVI melanoma cells. As to the kind of experiment: antitumor activity, sulforhodamine B cell growth assay, LOX-IMVI. Summed up: as §1
For assay [13], the system named is OVCAR-8 cancer cells. The assay can be described thus: antitumor activity, sulforhodamine B cell growth assay, OVCAR-8. The protocol:
as §2, §3, §4, §5

Assay [14] has as its system RXF-631L kidney cancer cells. The assay can be described thus: antitumor activity, sulforhodamine B cell growth assay, RXF-631L. The protocol: as §2, §3, §4, §5
For assay [15], the system named is St-4 gastric cancer cells. As to the kind of experiment: antitumor activity, sulforhodamine B cell growth assay, St-4. Summed up:
as §1

Assay [16] has as its system MKN74 gastric cancer cells. As to the kind of experiment: antitumor activity, sulforhodamine B cell growth assay, MKN74. Here is the method:
as §2, §3, §4, §5

Assay [17] deals with DU-145 prostate cancer cells. As to the kind of experiment: antitumor activity, sulforhodamine B cell growth assay, DU-145. Summed up: as §1
The subject of assay [18] is PC-3 prostate cancer cells. The assay can be described thus: antitumor activity, sulforhodamine B cell growth assay, PC-3. Here is the method: as §2, §3, §4, §5

With `C#CCN1C/C=C/COc2c(C)c3c(c4c2C[C@H]2[C@H]5c6c(cc(C)c(OC)c6O)C[C@@H]([C@H](C#N)N2C4CNC(=O)[C@@H]1C)N5C)OCO3` [Compound 44], the GI50 in assay [1] (BSY-1 breast cancer cells, read-out: antitumor activity GI50 value: 50% growth inhibitory concentration) is < 10 nM; in assay [2] (Homo sapiens, MCF7, MCF-7 breast cancer cells, read-out: antitumor activity GI50 value: 50% growth inhibitory concentration) it was < 10 nM; in assay [3] (Homo sapiens, U-251, U251 central nervous system cancer cells, read-out: antitumor activity GI50 value: 50% growth inhibitory concentration), < 10 nM; in [4] (Homo sapiens, SNB-75 central nervous system cancer cells, read-out: antitumor activity GI50 value: 50% growth inhibitory concentration), < 10 nM; in assay [5] (Homo sapiens, KM12, KM-12 colorectal cancer cells, read-out: antitumor activity GI50 value: 50% growth inhibitory concentration) it was < 10 nM; in [6] (Homo sapiens, HT-29 colorectal cancer cells, read-out: antitumor activity GI50 value: 50% growth inhibitory concentration) it was < 10 nM. Moreover, the GI50 in assay [7] (Homo sapiens, HCT-116 colorectal cancer cells, read-out: antitumor activity GI50 value: 50% growth inhibitory concentration) was < 10 nM; in assay [8] (Homo sapiens, NCI-H460, NCl--H460 lung cancer cells, read-out: antitumor activity GI50 value: 50% growth inhibitory concentration) it was < 10 nM; in assay [9] (Homo sapiens, A549 lung cancer cells, read-out: antitumor activity GI50 value: 50% growth inhibitory concentration), < 10 nM; in assay [10] (Homo sapiens, DMS-273, DMS273 lung cancer cells, read-out: antitumor activity GI50 value: 50% growth inhibitory concentration), < 10 nM; in [11] (Homo sapiens, DMS-114, DMS114 lung cancer cells, read-out: antitumor activity GI50 value: 50% growth inhibitory concentration), < 10 nM; in assay [12] (Homo sapiens, LOX-IMVI melanoma cells, read-out: antitumor activity GI50 value: 50% growth inhibitory concentration), < 10 nM. Moreover, the GI50 in assay [13] (Homo sapiens, OVCAR-8 cervical cancer cells, read-out: antitumor activity GI50 value: 50% growth inhibitory concentration) was < 10 nM; in assay [14] (RXF-631L kidney cancer cells, read-out: antitumor activity GI50 value: 50% growth inhibitory concentration), < 10 nM; in assay [15] (SI-4 gastric cancer cells, read-out: antitumor activity GI50 value: 50% growth inhibitory concentration) it was < 10 nM; in assay [16] (Homo sapiens, MKN-74, MKN74 gastric cancer cells, read-out: antitumor activity GI50 value: 50% growth inhibitory concentration) it was < 10 nM; in [17] (Homo sapiens, DU-145 prostate cancer cells, read-out: antitumor activity GI50 value: 50% growth inhibitory concentration) it was < 10 nM; in assay [18] (PC-3 prostate cancer cells, read-out: antitumor activity GI50 value: 50% growth inhibitory concentration) it was < 10 nM.
On to `COC1=C(C)C(=O)C2=C(C1=O)[C@H](CNC(=O)[C@H](C)N)N1C(C2)[C@H]2c3c(cc(C)c(OC)c3O)C[C@@H]([C@@H]1C#N)N2C` (some centres unmarked) [Cyanosafracin B, reference compound], for which the GI50 in assay [1] (BSY-1, drug exposure 48 hours, read-out: GI50 value: 50% growth inhibitory concentration) is 34 nM; in [2] (MCF-7, drug exposure 48 hours, read-out: GI50 value: 50% growth inhibitory concentration), 52 nM; in [3] (U251, drug exposure 48 hours, read-out: GI50 value: 50% growth inhibitory concentration), 370 nM; in [4] (SNB-75, drug exposure 48 hours, read-out: GI50 value: 50% growth inhibitory concentration), 150 nM; in assay [5] (KM-12, drug exposure 48 hours, read-out: GI50 value: 50% growth inhibitory concentration), 530 nM; in assay [6] (HT-29, drug exposure 48 hours, read-out: GI50 value: 50% growth inhibitory concentration), 190 nM. The GI50 came out at 290 nM in assay [7] (HCT-116, drug exposure 48 hours, read-out: GI50 value: 50% growth inhibitory concentration); 400 nM in assay [8] (NCI-H460, drug exposure 48 hours, read-out: GI50 value: 50% growth inhibitory concentration); 1600 nM in [9] (A549, drug exposure 48 hours, read-out: GI50 value: 50% growth inhibitory concentration); 270 nM in [10] (DMS273, drug exposure 48 hours, read-out: GI50 value: 50% growth inhibitory concentration); 35 nM in [11] (DMS114, drug exposure 48 hours, listed as drawing 116, read-out: GI50 value: 50% growth inhibitory concentration); 38 nM in [11] (DMS114, drug exposure 48 hours, listed as drawing 148, read-out: GI50 value: 50% growth inhibitory concentration). Further, the GI50 in assay [12] (LOX-IMVI, drug exposure 48 hours, listed as drawing 116, read-out: GI50 value: 50% growth inhibitory concentration) is 81 nM; in [12] (LOX-IMVI, drug exposure 48 hours, listed as drawing 120, read-out: GI50 value: 50% growth inhibitory concentration) it was 61 nM; in [13] (OVCAR-8, drug exposure 48 hours, read-out: GI50 value: 50% growth inhibitory concentration), 290 nM; in [14] (RXF-631L, drug exposure 48 hours, read-out: GI50 value: 50% growth inhibitory concentration), 400 nM; in [15] (St-4 (SI-4 in Tables 2-11), drug exposure 48 hours, read-out: GI50 value: 50% growth inhibitory concentration), 430 nM; in assay [16] (MKN74, drug exposure 48 hours, read-out: GI50 value: 50% growth inhibitory concentration) it was 310 nM. Moreover, the GI50 in assay [17] (DU-145, drug exposure 48 hours, read-out: GI50 value: 50% growth inhibitory concentration) is 490 nM; in [18] (PC-3, drug exposure 48 hours, read-out: GI50 value: 50% growth inhibitory concentration), 290 nM.
